# Reference: ChEMBL document CHEMBL6103622 (J Med Chem, 2025)
# Columns and labels:
# [1] = Apparent volume of distribution in Sprague-Dawley rat at 1 mg/kg, iv; format: ADME, organism-based; details: in vivo, read-out: Vz
# [2] = Terminal half-life in Sprague-Dawley rat at 10 mg/kg, po; format: ADME, organism-based; details: in vivo, read-out: beta t1/2 (converted)
# [3] = test system: MC-38; experiment: Antitumor activity against mouse MC38 cells allografted in C57BL/6 mouse model assessed as reduction in tumor weight at 10 mg/kg, ip administered once daily for 14 days relative to control; format: functional; design: scale not given: the % may be the effect or the level left; details: time 14 day
compound,measurement,setting,value
Cc1nc(NC(=O)N[C@@H]2CCCC[C@H]2O)ccc1Oc1c[nH]c2ncc(Cl)cc12,Vd,[1],3.28 L/kg
same,half-life,[2],112 min
same,Activity,[3],39%
